Series [1] has as its system Aorta. Description: Vasorelaxant activity against noradrenaline-induced contraction in Wistar rat thoracic aorta in presence of calcium. The series is classed as functional, tissue-based.
Series [2] concerns the target T1, Adrenergic receptor alpha-1 (Rattus norvegicus, UniProt P15823+P23944+P43140).
T1 sequence (P15823 whole entry): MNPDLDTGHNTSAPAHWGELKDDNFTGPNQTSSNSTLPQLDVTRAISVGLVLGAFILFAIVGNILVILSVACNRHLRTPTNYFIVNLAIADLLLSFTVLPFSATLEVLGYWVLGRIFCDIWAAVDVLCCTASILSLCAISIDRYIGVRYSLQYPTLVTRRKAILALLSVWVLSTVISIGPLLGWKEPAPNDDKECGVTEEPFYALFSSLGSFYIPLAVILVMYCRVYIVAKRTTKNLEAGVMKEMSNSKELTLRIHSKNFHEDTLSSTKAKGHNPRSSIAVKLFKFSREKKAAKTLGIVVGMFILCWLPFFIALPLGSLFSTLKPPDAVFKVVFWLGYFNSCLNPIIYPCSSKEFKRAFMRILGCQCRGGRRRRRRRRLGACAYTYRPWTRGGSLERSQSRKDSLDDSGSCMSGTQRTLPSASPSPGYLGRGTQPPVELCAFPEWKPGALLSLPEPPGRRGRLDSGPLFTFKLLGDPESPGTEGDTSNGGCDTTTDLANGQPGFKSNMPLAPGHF
T1 sequence (P23944 whole entry): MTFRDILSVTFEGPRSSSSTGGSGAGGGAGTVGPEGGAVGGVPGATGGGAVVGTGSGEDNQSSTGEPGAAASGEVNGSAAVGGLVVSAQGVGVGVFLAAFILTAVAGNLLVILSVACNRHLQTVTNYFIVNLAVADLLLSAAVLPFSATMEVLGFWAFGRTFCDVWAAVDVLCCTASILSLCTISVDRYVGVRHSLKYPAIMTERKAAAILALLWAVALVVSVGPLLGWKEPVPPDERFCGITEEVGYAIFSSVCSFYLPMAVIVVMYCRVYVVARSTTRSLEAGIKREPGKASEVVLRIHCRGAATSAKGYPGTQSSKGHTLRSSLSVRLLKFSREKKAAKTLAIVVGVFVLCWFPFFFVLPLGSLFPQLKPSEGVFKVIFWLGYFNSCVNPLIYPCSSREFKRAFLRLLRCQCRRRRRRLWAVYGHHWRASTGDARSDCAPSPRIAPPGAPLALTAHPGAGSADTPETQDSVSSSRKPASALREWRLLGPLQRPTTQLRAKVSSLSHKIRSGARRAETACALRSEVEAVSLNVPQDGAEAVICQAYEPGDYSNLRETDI
T1 sequence (P43140 whole entry): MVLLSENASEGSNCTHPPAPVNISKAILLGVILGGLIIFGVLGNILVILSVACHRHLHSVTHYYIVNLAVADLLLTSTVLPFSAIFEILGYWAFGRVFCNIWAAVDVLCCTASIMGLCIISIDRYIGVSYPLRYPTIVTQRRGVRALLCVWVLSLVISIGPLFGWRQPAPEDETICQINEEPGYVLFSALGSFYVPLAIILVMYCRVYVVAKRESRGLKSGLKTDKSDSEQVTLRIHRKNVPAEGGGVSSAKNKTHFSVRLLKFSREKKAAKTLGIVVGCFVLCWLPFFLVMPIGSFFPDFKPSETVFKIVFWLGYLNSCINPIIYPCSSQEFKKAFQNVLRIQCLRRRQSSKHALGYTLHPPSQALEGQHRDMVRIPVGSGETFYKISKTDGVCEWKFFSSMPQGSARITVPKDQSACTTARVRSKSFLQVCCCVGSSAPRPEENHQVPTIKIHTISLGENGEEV
Briefly: Displacement of [3H]prazosin from alpha1 adrenergic receptor in Wistar rat cerebral cortex membrane. It is filed as tissue-based.

Series [3] has as its target Voltage-gated L-type calcium channel (Rattus norvegicus, UniProt P22002+Q02485+P27732). Description: Displacement of [3H]diltiazem from benzothiazepine binding site of L-type calcium channel in Wistar rat cerebral cortex membrane.
Series [4] deals with Aorta. Briefly: Vasorelaxant activity against KCl-induced contraction in Wistar rat thoracic aorta at 100 uM in presence of calcium. It is filed as functional. Also on record: scale not given: the % may be the effect or the level left.
Series [5] has as its system Aorta. Description: Vasorelaxant activity against KCl-induced contraction in Wistar rat thoracic aorta in presence of calcium. The series is classed as functional, tissue-based.

For `COc1cc2c(cc1O)C(Cc1ccc(O)cc1)NCC2` (racemic) [COCLAURINE], the IC50 in the series on Aorta [1] was 17.4 µM. Further, the pKi in series [2] turned out to be 5.97. For the same molecule, the Activity is given as 30% in series [3] (rat) and 17.2% in the series on Aorta [4].

Consider `COc1cc2c(cc1O)C(Cc1ccc(OCc3ccccc3)cc1)NCC2` (racemic), for which the half-maximal inhibitory concentration (IC50) with Aorta [1] was 16.2 µM; in the series with Aorta [5] it was 13.8 µM. The negative-log Ki (pKi) in series [2] was found to be 5.69; in series [3] it was 5.57.

Take `COc1ccc(CC2NCCc3cc(OC)c(O)cc32)cc1` (racemic): the figures for the negative-log Ki (pKi) in series [2] and in series [3] were 4.92 and 4.49, respectively.

Turning to `CCCN1CCc2cc(OC)c(OCc3ccccc3)cc2C1Cc1ccc(OCc2ccccc2)cc1` (racemic), the pKi in series [2] is 5.05; in series [3] it was 5.75.

`COc1cc2c(cc1OC)C(Cc1ccc(O)cc1)N(C)CC2` (racemic): the IC50 was 209 µM in the series with Aorta [1] and 115 µM with Aorta [5]. For the same molecule, the negative logarithm of the Ki (pKi) was 5.14 in series [2] and 5.02 in series [3].

As for `COc1cc2c(cc1O)C(Cc1ccc(O)cc1)N(C)CC2` (racemic) [METHYL COCLAURINE], the half-inhibitory concentration (IC50) in the series with Aorta [1] is 24.5 µM; in the series with Aorta [5] it was 67.6 µM. Besides, the figures for the negative logarithm of the Ki (pKi) in series [2] and in series [3] were 5.63 and 4.64, respectively.

With `COc1cc2c(cc1OCc1ccccc1)C(Cc1ccc(OCc3ccccc3)cc1)N(C)CC2` (racemic), the pKi in series [2] is on record as 5.12; in series [3] it was 5.74.

Molecule `COc1ccc(CC2NCCc3cc(OC)c(OCc4ccccc4)cc32)cc1` (racemic) had a pKi in series [2] of 5.34.

For `CCN1CCc2cc(OC)c(OC)cc2C1Cc1ccc(O)cc1` (racemic), the negative logarithm of the Ki (pKi) is 5.07 in series [2] and 4.51 in series [3].

Consider `COc1ccc(CC2c3cc(OC)c(OC)cc3CCN2C)cc1` (racemic), for which the IC50 was 66.1 µM in the series on Aorta [1] and 14.8 µM in the series with Aorta [5]. Besides, the figures for the pKi in series [2] and in series [3] were 5.1 and 5.38, respectively.

Take `COc1cc2c(cc1OCc1ccccc1)C(Cc1ccc(OCc3ccccc3)cc1)NCC2` (racemic): the negative-log Ki (pKi) is on record as 5.02 in series [2] and 4.61 in series [3].

Regarding `CCN1CCc2cc(OC)c(O)cc2C1Cc1ccc(O)cc1` (racemic), the pKi in series [2] turned out to be 5.29; in series [3] it was 4.86.

Consider `COc1ccc2cc1Oc1ccc(cc1)C[C@H]1c3cc(c(OC)cc3CCN1C)Oc1c(OC)c(OC)cc3c1[C@H](C2)N(C)CC3` [FANCHININ], for which the IC50 in the series on Aorta [1] was 29.5 µM; in the series with Aorta [5], 13.5 µM. Moreover, the figures for the pKi in series [2] and in series [3] were 6.16 and 6.13, respectively.

In turn, `COc1cc2c(cc1OC)C(Cc1ccc(O)cc1)NCC2` (racemic) showed a pKi in series [2] of 5.23.

Regarding `COc1ccc(CC2c3cc(O)c(OC)cc3CCN2C)cc1` (racemic), the 50% inhibitory concentration (IC50) in the series with Aorta [1] is 25.1 µM; with Aorta [5] it was 72.4 µM. Besides, the pKi in series [2] came out at 5.29; in series [3], 4.9.

For `COc1ccc(CC2c3cc(OCc4ccccc4)c(OC)cc3CCN2C)cc1` (racemic), the half-maximal inhibitory concentration (IC50) in the series with Aorta [1] was 4.27 µM; with Aorta [5] it was 11.5 µM. Further, the pKi in series [2] was determined as 5.73; in series [3] it was 5.82.

For the molecule `COc1cc2c(cc1OCc1ccccc1)C(Cc1ccc(O)cc1)NCC2` (racemic), the half-inhibitory concentration (IC50) was 13.2 µM in the series with Aorta [1] and 7.59 µM in the series with Aorta [5]. Moreover, the results for the negative logarithm of the Ki (pKi) in series [2] and in series [3] were 5.49 and 5.6, respectively.

With `COc1cc2c(cc1OCc1ccccc1)C(Cc1ccc(O)cc1)N(C)CC2` (racemic), the figures for the IC50 with Aorta [1] and in the series on Aorta [5] were 8.71 µM and 5.75 µM, respectively. In addition, the pKi in series [2] worked out at 5.49; in series [3], 5.7.

For the origin of these results see ChEMBL document CHEMBL1146551, “Simplified tetrandrine congeners as possible antihypertensive agents with a dual mechanism of action” (J Nat Prod, 2003).
